Converted amounts (≈) assume the structure as drawn.
Key:
[1] = Penetration ratio, ratio of fAUC (0 to 4 hrs) in Sprague-Dawley rat brain to fAUC (0 to 4 hrs) in Sprague-Dawley rat plasma at […], sc; format: ADME, organism-based; parameters: dose 3.2 mg/kg, route subcutaneous
[2] = Solubility of compound at pH 5.5; format: physicochemical; conditions: buffer
[3] = Permeability across dog RRCK cells; format: ADME, cell-based, Canis lupus familiaris, MDCKII-LE; conditions: MDCK, read-out: permeability
[4] = Permeability of the compound by PAMPA; format: ADME; conditions: read-out: permeability
[5] = Penetration ratio, ratio of AUC (0 to 4 hrs) in Sprague-Dawley rat CSF to AUC (0 to 4 hrs) in Sprague-Dawley rat unbound plasma at […], sc; format: ADME, organism-based; parameters: dose 3.2 mg/kg, route subcutaneous; conditions: read-out: Ratio AUC
[6] = Solubility of compound at pH 6.6; format: physicochemical; conditions: buffer

Kp uu [1]: 1
solubility [2]: > 8530 µg/mL
Papp [3]: 19 ×10⁻⁶ cm/s
Papp [4]: 19 ×10⁻⁶ cm/s
Kp uu [5]: 1.2
solubility [6]: 110 µg/mL (≈ 295 µM)
SMILES: CC(C)CNCc1ccc(-c2ccccc2S(=O)(=O)N2CCCC2)cc1 [PF-04455242]
